The values that follow are results of earlier work, collected in US7208615B2, “Triple mineral salts of (-)-hydroxycitric acid and processes for preparing the same” (Laila Impex, priority 2004, dated 2007).

For data set [1] the following is noted: background art; forms lactone, liquid form unstable during storage.
The conditions of data set [2]: background art (US 5,783,603).

Consider `O=C(O)CC(O)(C(=O)O)C(O)C(=O)O` (single isomer, unassigned; (-)) [(−)-hydroxycitric acid], for which the “stability of free acid form” value in data set [1] is recorded as “unstable”. Consider potassium salt of HCA, for which the hygroscopicity entry in data set [2] was “hygroscopic”.
